Experimental data as given in patent US20260078348A1, “MULTIPLE MYELOMA MICROORGANOSPHERES” (Xilis, Inc., priority 2022, published 2026).

How the values were obtained:
MM MOS [1] = assay: Caspase 3/7 green dye apoptosis monitoring of drug-treated MM MOS (INCUCYTE imaging); format: cell-based, human; settings: for MM MOS death (Caspase 3/7 signal): day 11 MM MOS, 5 μM lenalidomide or 2 nM bortezomib for 92 hours, vs negative control
Experimental: Studies were conducted to determine the effects of various MM drugs on the MM MOS. For example, day 11 MM MOS were treated with 5 μM lenalidomide or 2 nM bortezomib for 92 hours, with no medium change during the drug treatment. Caspase 3/7 green dye was included in the medium to monitor apoptosis, and fluorescence was measured.

MM MOS [2] = assay: Live/dead dye (calcein AM / ethidium homodimer) imaging of drug-treated MM MOS; format: cell-based, human; settings: for MM MOS response to treatment: 10 μM for 4 days, live/dead dye images, n=3, p<0.05 by t-test; for live/dead ratio: 10 μM, 4 days of treatment beginning on day 9 of MOS generation, compared to negative control
Experimental: Further studies were conducted using 10 μM carfilzomib or 10 μM selinexor treatment beginning on day 9 of MOS generation from MM patient bone marrow biopsy samples. After 4 days of treatment, live/dead dyes (calcein AM-green and ethidium homodimer-red) were added to the wells for a 30-minute incubation.

Structure (SMILES) | time at which MM MOS responded after onset of treatment (MM MOS [1]; 5 μM lenalidomide, INCUCYTE images taken every 2 hours) [h] | MM MOS death (Caspase 3/7 signal) (MM MOS [1]) | MM MOS response to treatment (MM MOS [2]) | live/dead ratio (MM MOS [2])
Nc1cccc2c1CN(C1CCC(=O)NC1=O)C2=O (stereo not shown) [lenalidomide] | 24 | increased | – | –
O=C(/C=C\n1cnc(-c2cc(C(F)(F)F)cc(C(F)(F)F)c2)n1)NNc1cnccn1 [selinexor] | – | – | responded | significantly reduced
CC(C)C[C@H](NC(=O)[C@H](Cc1ccccc1)NC(=O)c1cnccn1)B(O)O [bortezomib] | – | not | – | –
CC(C)C[C@H](NC(=O)[C@H](CCc1ccccc1)NC(=O)CN1CCOCC1)C(=O)N[C@@H](Cc1ccccc1)C(=O)N[C@@H](CC(C)C)C(=O)[C@@]1(C)CO1 [carfilzomib] | – | – | responded | significantly reduced
